Test results taken from PMC6804443 (Acta Pharmaceutica Sinica. B, 2019).
One block for each compound: values may come before it.

Columns and labels:
OATP1B3 [1] = target: T1, OATP1B3 (Homo sapiens, UniProt Q9NPD5); conditions: IC50, OATP1B3 [X10], mean ± SD (n = 3)
T1 sequence (Q9NPD5 1-702): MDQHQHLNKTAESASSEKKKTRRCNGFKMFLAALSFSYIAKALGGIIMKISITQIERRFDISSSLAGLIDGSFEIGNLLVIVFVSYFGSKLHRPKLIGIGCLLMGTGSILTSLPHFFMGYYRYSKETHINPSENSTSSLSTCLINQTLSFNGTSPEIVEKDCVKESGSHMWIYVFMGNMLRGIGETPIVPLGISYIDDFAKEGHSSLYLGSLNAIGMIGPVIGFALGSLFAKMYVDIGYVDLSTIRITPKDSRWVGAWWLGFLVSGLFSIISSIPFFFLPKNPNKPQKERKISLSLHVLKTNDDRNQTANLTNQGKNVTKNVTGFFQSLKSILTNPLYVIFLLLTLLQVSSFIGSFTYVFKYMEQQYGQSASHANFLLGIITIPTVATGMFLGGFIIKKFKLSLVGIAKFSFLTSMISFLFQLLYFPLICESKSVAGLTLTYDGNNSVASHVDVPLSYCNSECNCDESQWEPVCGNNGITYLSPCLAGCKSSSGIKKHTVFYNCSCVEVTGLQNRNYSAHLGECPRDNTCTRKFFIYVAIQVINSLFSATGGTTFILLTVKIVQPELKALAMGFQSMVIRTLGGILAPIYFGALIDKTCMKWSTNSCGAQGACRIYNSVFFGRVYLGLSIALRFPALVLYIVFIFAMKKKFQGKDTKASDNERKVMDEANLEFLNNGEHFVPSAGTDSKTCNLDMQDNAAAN

OATP1B3 [2] = target: T1, OATP1B3; test: in vitro
UGT2B15 = target: T2, UGT2B15 (Homo sapiens, UniProt P54855); type: in vitro ADME; conditions: for Inhibition DDI index, UGT2B15: antibiotic as perpetrator, senkyunolide I (X5) as victim, (Cmax × fu-p × R)/IC50
T2 sequence (P54855 24-530): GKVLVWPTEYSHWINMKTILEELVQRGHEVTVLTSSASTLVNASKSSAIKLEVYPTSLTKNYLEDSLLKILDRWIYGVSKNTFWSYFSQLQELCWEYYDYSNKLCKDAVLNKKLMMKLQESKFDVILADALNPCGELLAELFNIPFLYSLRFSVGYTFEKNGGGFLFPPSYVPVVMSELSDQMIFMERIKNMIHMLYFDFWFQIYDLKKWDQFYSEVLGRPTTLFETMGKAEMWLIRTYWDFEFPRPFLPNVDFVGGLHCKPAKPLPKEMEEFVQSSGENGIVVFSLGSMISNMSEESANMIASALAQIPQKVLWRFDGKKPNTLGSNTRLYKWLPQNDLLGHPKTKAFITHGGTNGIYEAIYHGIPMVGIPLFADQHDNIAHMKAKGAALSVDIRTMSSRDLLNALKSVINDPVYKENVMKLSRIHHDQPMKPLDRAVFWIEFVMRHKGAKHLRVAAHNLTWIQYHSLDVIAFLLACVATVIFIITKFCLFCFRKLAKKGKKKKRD

OATP1B3 [3] = target: T1, OATP1B3; conditions: antibiotic as perpetrator, salvianolic acid B (X10) as victim; (Cmax × fu-p × R)/IC50
OAT1 = target: T3, OAT1 (Homo sapiens, UniProt Q4U2R8); test: OAT1 inhibition by antibiotics, transfected HEK293 cells, tanshinol as substrate; conditions: for Inhibition DDI index, OAT1: antibiotic as perpetrator, tanshinol (X8) as victim, (Cmax × fu-p × R)/IC50
T3 sequence (Q4U2R8 1-563): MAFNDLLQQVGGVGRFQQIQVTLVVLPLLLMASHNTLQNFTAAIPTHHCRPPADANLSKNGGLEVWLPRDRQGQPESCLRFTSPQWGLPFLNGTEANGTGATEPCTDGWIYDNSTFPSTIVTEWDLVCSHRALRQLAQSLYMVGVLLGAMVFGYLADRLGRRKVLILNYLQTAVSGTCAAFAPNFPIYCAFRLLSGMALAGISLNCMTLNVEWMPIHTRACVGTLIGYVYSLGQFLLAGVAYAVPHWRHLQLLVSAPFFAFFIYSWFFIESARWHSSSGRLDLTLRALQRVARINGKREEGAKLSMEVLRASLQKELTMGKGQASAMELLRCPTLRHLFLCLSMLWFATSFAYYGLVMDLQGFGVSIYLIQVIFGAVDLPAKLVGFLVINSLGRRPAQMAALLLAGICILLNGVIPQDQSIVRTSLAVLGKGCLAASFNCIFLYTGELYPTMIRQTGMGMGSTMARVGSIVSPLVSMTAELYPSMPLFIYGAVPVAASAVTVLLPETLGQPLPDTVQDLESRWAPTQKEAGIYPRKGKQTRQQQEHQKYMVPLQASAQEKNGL

OAT2 = target: T4, OAT2 (Homo sapiens, UniProt Q9Y694); test: OAT2 inhibition by antibiotics, transfected HEK293 cells, tanshinol as substrate; type: in vitro ADME; conditions: for Inhibition DDI index, OAT2: antibiotic as perpetrator, tanshinol (X8) as victim, (Cmax × fu-p × R)/IC50
T4 sequence (Q9Y694 1-546 isoform Q9Y694-2): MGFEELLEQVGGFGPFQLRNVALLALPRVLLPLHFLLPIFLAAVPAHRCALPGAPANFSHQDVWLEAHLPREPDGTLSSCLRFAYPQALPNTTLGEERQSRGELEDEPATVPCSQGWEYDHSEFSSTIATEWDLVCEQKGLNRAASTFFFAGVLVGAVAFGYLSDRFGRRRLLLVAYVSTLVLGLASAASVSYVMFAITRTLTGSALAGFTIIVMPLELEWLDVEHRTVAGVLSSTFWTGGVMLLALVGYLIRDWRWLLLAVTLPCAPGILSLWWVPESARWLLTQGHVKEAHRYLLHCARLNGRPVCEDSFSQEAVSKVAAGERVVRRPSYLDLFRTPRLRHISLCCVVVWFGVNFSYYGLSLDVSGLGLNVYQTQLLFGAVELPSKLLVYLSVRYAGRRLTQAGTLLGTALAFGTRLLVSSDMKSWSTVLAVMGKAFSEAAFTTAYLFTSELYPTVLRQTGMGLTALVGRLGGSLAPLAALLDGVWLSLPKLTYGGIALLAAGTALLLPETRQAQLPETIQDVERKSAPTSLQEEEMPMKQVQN

ALDH = type: in vitro ADME; conditions: human, pooled human liver cytosol
[4] = HEK293, read-out: Inhibition of OAT2

IC50 (OATP1B3 [1]): 17 ± 2 µM | inhibition at 100 μmol/L (OATP1B3 [2]): 64 to 88%
SMILES: COc1c(N2C[C@@H]3CCCN[C@@H]3C2)c(F)cc2c(=O)c(C(=O)O)cn(C3CC3)c12 [A33, moxifloxacin]

IC50 (UGT2B15): 55 ± 6 µM | Inhibition DDI index, UGT2B15 (UGT2B15): 0.75 | inhibition at 1000 μmol/L (UGT2B15; human, cDNA-expressed UGT2B15): ≥ 90% | IC50 (OATP1B3 [1]): 19 ± 8 µM | Inhibition DDI index, OATP1B3 (OATP1B3 [3]): 2.16 | inhibition at 1000 μmol/L (OATP1B3 [2]): 64 to 88% | IC50 (OAT1): 189 ± 75 µM | Inhibition DDI index, OAT1 (OAT1): 0.22 | inhibition at 1000 μmol/L (OAT1; human): 63 to 88%
SMILES: C[C@@H](c1ncncc1F)[C@](O)(Cn1cncn1)c1ccc(F)cc1F [A45, voriconazole]

IC50 (OATP1B3 [1]): 4 ± 1 µM | inhibition at 100 μmol/L (OATP1B3 [2]): 64 to 88%
SMILES: CCC(C)n1ncn(-c2ccc(N3CCN(c4ccc(OCC5COC(Cn6cncn6)(c6ccc(Cl)cc6Cl)O5)cc4)CC3)cc2)c1=O (centres unmarked) [A44, itraconazole]

IC50 (UGT2B15): 797 ± 142 µM | Inhibition DDI index, UGT2B15 (UGT2B15): 0.56 | inhibition at 5000 μmol/L (UGT2B15; human, cDNA-expressed UGT2B15): 60 to 88% | IC50 (OAT2): 1210 ± 434 µM | inhibition at 5000 µM (OAT2; [4]): 60 to 84% | Inhibition DDI index, OAT2 (OAT2): 0.37 | IC50 (OAT1): 591 ± 154 µM | Inhibition DDI index, OAT1 (OAT1): 0.75 | inhibition at 5000 μmol/L (OAT1; human): 63 to 88%
SMILES: CCN1CCN(C(=O)N[C@@H](C(=O)N[C@@H]2C(=O)N3[C@@H]2SC(C)(C)[C@@H]3C(=O)O)c2ccccc2)C(=O)C1=O [A13, piperacillin]

IC50 (OATP1B3 [1]): 2 µM | inhibition at 100 μmol/L (OATP1B3 [2]): > 90%
SMILES: CO[C@H]1/C=C/O[C@@]2(C)Oc3c(C)c(O)c4c(O)c(c(/C=N/N5CCN(C)CC5)c(O)c4c3C2=O)NC(=O)/C(C)=C\C=C\[C@H](C)[C@H](O)[C@@H](C)[C@@H](O)[C@@H](C)[C@H](OC(C)=O)[C@@H]1C [A39, rifampin]

IC50 (ALDH): 2080 ± 283 µM | inhibition at 5000 μmol/L (ALDH): 56 to 88% | IC50 (OATP1B3 [1]): 42 ± 18 µM | Inhibition DDI index, OATP1B3 (OATP1B3 [3]): 8.55 | inhibition at 5000 μmol/L (OATP1B3 [2]): > 90%
SMILES: CC1(C)S[C@@H]2[C@H](NC(=O)[C@H](N)c3ccccc3)C(=O)N2[C@H]1C(=O)O [A16, ampicillin]

IC50 (ALDH): 87 ± 9 µM | inhibition at 100 μmol/L (ALDH): 56 to 88% | IC50 (OATP1B3 [1]): 1 µM | inhibition at 100 μmol/L (OATP1B3 [2]): 64 to 88%
SMILES: C[C@@H]1[C@H](O)[C@@H](C)/C=C/C=C/C=C/C=C/C=C/C=C/C=C/[C@H](O[C@@H]2O[C@H](C)[C@@H](O)[C@H](N)[C@@H]2O)C[C@@H]2O[C@](O)(C[C@@H](O)C[C@@H](O)[C@H](O)CC[C@@H](O)C[C@@H](O)CC(=O)O[C@H]1C)C[C@H](O)[C@H]2C(=O)O [A42, amphotericin B]

IC50 (OAT2): 50 ± 9 µM | inhibition at 100 µM (OAT2; [4]): 60 to 84% | Inhibition DDI index, OAT2 (OAT2): 0.36
SMILES: C[C@H]1COc2c(N3CCN(C)CC3)c(F)cc3c(=O)c(C(=O)O)cn1c23 [A31, levofloxacin]

IC50 (ALDH): 1030 ± 155 µM | inhibition at 5000 μmol/L (ALDH): 56 to 88%
SMILES: CC(C)(O/N=C(\C(=O)N[C@@H]1C(=O)N2C(C(=O)[O-])=C(C[n+]3ccccc3)CS[C@H]12)c1csc(N)n1)C(=O)O [A7, ceftazidime]
